Measurements reported in USRE47193E1, “Selectively substituted quinoline compounds” (EISAI R&D MANAGEMENT CO., LTD., priority 2013, dated 2019).

Experiments:
human TLR8 = molecular target: T1, human TLR8 (Homo sapiens, UniProt Q9NR97); experiment: HEK-293 human TLR8 NF-kappaB luciferase reporter assay (CL097); type: cell-based; conditions: HEK-293 assay format; read-out: HEK/hTLR8 IC50
T1 construct: host or cells: HEK-293, then stably transfected with pNiFty2(NF-kappaB)-luciferase reporter
T1 sequence (Q9NR97 27-1041): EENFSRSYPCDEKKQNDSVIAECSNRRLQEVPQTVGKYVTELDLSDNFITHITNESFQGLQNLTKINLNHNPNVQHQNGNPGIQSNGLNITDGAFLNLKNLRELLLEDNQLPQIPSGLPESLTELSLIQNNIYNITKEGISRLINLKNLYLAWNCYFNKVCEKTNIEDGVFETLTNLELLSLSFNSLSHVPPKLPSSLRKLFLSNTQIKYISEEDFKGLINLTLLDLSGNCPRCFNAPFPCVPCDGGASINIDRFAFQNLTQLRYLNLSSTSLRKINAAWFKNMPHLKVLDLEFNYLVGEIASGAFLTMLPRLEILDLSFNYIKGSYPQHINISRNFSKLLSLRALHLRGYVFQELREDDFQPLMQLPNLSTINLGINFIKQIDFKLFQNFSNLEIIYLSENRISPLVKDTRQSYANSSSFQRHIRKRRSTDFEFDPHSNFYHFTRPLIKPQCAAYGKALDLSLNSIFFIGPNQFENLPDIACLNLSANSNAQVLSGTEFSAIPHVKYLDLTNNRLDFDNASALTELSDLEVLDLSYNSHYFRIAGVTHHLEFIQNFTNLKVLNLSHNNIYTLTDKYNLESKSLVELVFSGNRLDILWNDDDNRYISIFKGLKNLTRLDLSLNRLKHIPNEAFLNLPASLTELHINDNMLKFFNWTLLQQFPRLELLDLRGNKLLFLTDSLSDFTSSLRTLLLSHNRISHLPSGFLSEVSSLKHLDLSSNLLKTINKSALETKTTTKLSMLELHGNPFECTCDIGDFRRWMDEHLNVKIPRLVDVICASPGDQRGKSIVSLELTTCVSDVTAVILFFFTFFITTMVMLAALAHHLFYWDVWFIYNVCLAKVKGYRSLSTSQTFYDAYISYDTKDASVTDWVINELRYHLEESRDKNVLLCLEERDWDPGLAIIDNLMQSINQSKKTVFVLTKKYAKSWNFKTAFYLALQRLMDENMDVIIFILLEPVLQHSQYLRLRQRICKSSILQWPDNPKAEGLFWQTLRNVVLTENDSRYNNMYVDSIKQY
Procedure: Effects on mouse TLR7 were also compared. Cells were stimulated overnight with TLR7/8 agonist CL097 at pre-determined ED70-80: 3 ug/ml for HEK-hTLR7, 1.5 ug/ml for HEK-mTLR7 and 12 ug/ml for HEK-hTLR8, before reading luminescence intensity. Three tests were performed and IC50 value was determined using Graphpad Prism 6 nonlinear regression curve fit.
HEK-293 cells (ATCC) were engineered to stably express a NF-kappaB transcription factor inducible E-selectin (ELAM-1) luciferase reporter derived from the plasmid pGL3 (Promega) containing base pairs −2241 bp to −254 bp from the promoter of the human E-selectin gene (Accession No. NM_000450). These cells were then subsequently engineered to stably and individually express human TLR4, TLR7 or TLR9 full-length ORF cDNAs. Human TLR4 cDNA (Accession No. NM_138554) was cloned into pcDNA 3.0 expression vector (Invitrogen). TLR4 transfected cells were also engineered to express human MD-2 co-receptor [MD-2 cDNA (Accession No. NM_015364) was cloned into the pEF-BOS vector] and were supplemented with 10 nM soluble CD14 (R&D Systems) in the media to optimize LPS responsiveness. Human TLR9 cDNA (Accession No. NM_017442) was cloned into the pBluescript II KS vector (Agilent). Human TLR7 cDNA (Accession No. NM_016562) was obtained from OriGene. HEK-293 cells stably expressing human TLR8 (Accession No. NM_138636) or mouse TLR7 (Accession No. NM_133211) were purchased from InvivoGen and were then stably transfected with pNiFty2(NF-kappaB)-luciferase reporter plasmid (InvivoGen). Each cell type was plated in Dulbecco's modified Eagle's medium (DMEM) containing 10% fetal bovine serum (FBS) at a density of 2.22×10^5 cells/ml into a 384-well plate and incubated for 2 days at 37° C., 5% CO2. Varying concentrations of antagonist compounds were then added. Cells were then incubated for another 30 minutes before adding the appropriate TLR agonist as follows (final concentrations indicated): lipopolysaccharide (LPS; Sigma) at 10 ng/ml for TLR4, CL097 (InvivoGen) at 3 ug/ml for human TLR7 and TLR8 and mouse TLR7, and CvG-2006-2A [sequence: […] (SEQ ID NO: 1) with phosphorothioate backbone, synthesized by Sigma-Aldrich] at 0.6 uM for TLR9.

Human TLR7/8 = experiment: Human PBMC cell-based assay, TLR7/8 stimulus (RNA-Ig), cytokine ELISA; conditions: primary human PBMC assay, TLR7/8 potency; ligand not given; read-out: Human PBMCs IC50
Summary of the method: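 Healthy-donor human PBMC, 2×10^5 cells/well (1×10^5 in later assay), pre-treated 30 min with compound (0.1% DMSO). Stimulated 20 h at 37 °C with RNA-Ig: 26-mer U1 snRNA stem loop IV phosphorothioate RNA at 2.5 μM plus anti-ssDNA antibody (1:25 or 1 ug/ml). Supernatant cytokines by ELISA.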

| SMILES | IC50 (human TLR8) [nM] | IC50 (Human TLR7/8) [nM] |
| --- | --- | --- |
| C[C@@H]1CN(c2ccc(C#N)c3ncccc23)C[C@H](CCl)O1 [ER-885906] | 20 | 33 |
| CC[C@@H]1CN(c2ccc(C#N)c3ncccc23)C[C@H](COCc2ccccc2)O1 [ER-886355] | 66 | 177 |
| C[C@@H]1CN(c2ccc(C#N)c3ncccc23)C[C@H](COc2ccccc2F)O1 [ER-886624] | 86 | 23 |
| CCC(=O)[C@H]1CN(c2ccc(C#N)c3ncccc23)C[C@@H](C)O1 [ER-886625] | 10 | 91 |
| C[C@@H]1CN(c2ccc(C#N)c3ncccc23)C[C@H](C(=O)C2CCCCC2)O1 [ER-886626] | 5 | 80 |
| C[C@@H]1CN(c2ccc(C#N)c3ncccc23)C[C@H](CN2CCC(c3ccccc3)C2)O1 (stereo partly drawn) [ER-886854] | 46 | 20 |
| CC1CCC(C)N1C[C@H]1CN(c2ccc(C#N)c3ncccc23)C[C@@H](C)O1 (stereo partly drawn) [ER-886857] | 72 | 98 |
| COc1ccnc(NC[C@H]2CN(c3ccc(C#N)c4ncccc34)C[C@@H](C)O2)c1 [ER-886858] | 2 | 15 |
| C[C@@H]1CN(c2ccc(C#N)c3ncccc23)C[C@H](CN2CCC(C)(C)C2)O1 [ER-886869] | 161 | 112 |
| C[C@@H]1CN(c2ccc(C#N)c3ncccc23)C[C@H](CN2CCC[C@@H](O)C2)O1 [ER-886949] | 78 | 32 |
| C[C@@H]1CN(c2ccc(C#N)c3ncccc23)C[C@H](CN2CCCCC2CO)O1 (stereo partly drawn) [ER-886955] | 83 | 129 |
| C[C@@H]1CN(c2ccc(C#N)c3ncccc23)C[C@H](CNc2cccnc2)O1 [ER-887138] | 13 | 4 |
| C[C@@H]1CN(c2ccc(C#N)c3ncccc23)C[C@H](CN2CCC(F)(F)CC2)O1 [ER-887142] | 115 | 147 |
| C[C@@H]1CN(c2ccc(C#N)c3ncccc23)C[C@H](CN2CCC(c3ccccc3)CC2)O1 [ER-887143] | 148 | 13 |
| CC1CN(c2ccc(C#N)c3ncccc23)CC(CN2CCC(F)CC2)O1 (stereo not drawn) [ER-887144] | 48 | 63 |
| CC[C@@H]1CN(c2ccc(C#N)c3ncccc23)C[C@H](CO)O1 [ER-887199] | 77 | 117 |
| C[C@@H]1CN(c2ccc(C#N)c3ncccc23)C[C@H](CN2CCN(c3ccccc3)CC2)O1 [ER-887258] | 175 | 55 |
| CC(=O)N1CCN(C[C@H]2CN(c3ccc(C#N)c4ncccc34)C[C@@H](C)O2)CC1 [ER-887261] | 77 | 120 |
| C[C@@H]1CN(C[C@H]2CN(c3ccc(C#N)c4ncccc34)C[C@@H](C)O2)[C@H](C)CN1 [ER-887271] | 1.6 | 2 |
| C[C@@H]1CN(c2ccc(C#N)c3ncccc23)C[C@H](CN2C[C@H](C)NC[C@H]2C)O1 [ER-887272] | 2.9 | 2 |
| C[C@@H]1CN(c2ccc(C#N)c3ncccc23)C[C@H](CNC2CCC2)O1 [ER-887443] | 138 | 32 |
| C[C@@H]1CN(c2ccc(C#N)c3ncccc23)C[C@H](CNC2CCC(O)CC2)O1 (stereo partly drawn) [ER-887526] | 122 | 50 |
| C[C@@H]1CN(c2ccc(C#N)c3ncccc23)C[C@H](CNc2ccc(-c3ccccc3)cn2)O1 [ER-887538] | 85 | 48 |
| C[C@@H]1CN(c2ccc(C#N)c3ncccc23)C[C@H](CNc2ncccc2-c2ccccc2)O1 [ER-887540] | 3 | 1 |
| CCOc1cccnc1NC[C@H]1CN(c2ccc(C#N)c3ncccc23)C[C@@H](C)O1 [ER-887587] | 1.8 | 1 |
| C[C@@H]1CN(c2ccc(C#N)c3ncccc23)C[C@H](CNc2ccnc(-c3ccccc3)c2)O1 [ER-887588] | 0.5 | 1 |
| C[C@@H]1CN(c2ccc(C#N)c3ncccc23)C[C@H](CN2CC(NC(=O)c3ccccc3)C2)O1 [ER-894594] | 116 | 87 |
